We go through 2 molecules from paper PMC11091220, “Metabolism-driven in vitro/in vivo disconnect of an oral ERɑ VHL-PROTAC” (Communications Biology, 2024).

Each structure is given as a SMILES string. Where a chain is given by its changes, count along the chain named. Values joined by “and” are separate entries in the source; they are usually repeats but may differ in a detail not shown here. Equal entries are not always repeated. Where two headings read alike, the source gives them in different places. A value given as a limit tells only on which side of the number the result lay.

Series [1] deals with T1, ERα (Homo sapiens, UniProt P03372).
T1 construct: endogenous in cells; host or cells: MCF7 (also MCF7 engineered to express Cas9)
T1 sequence (P03372 1-595): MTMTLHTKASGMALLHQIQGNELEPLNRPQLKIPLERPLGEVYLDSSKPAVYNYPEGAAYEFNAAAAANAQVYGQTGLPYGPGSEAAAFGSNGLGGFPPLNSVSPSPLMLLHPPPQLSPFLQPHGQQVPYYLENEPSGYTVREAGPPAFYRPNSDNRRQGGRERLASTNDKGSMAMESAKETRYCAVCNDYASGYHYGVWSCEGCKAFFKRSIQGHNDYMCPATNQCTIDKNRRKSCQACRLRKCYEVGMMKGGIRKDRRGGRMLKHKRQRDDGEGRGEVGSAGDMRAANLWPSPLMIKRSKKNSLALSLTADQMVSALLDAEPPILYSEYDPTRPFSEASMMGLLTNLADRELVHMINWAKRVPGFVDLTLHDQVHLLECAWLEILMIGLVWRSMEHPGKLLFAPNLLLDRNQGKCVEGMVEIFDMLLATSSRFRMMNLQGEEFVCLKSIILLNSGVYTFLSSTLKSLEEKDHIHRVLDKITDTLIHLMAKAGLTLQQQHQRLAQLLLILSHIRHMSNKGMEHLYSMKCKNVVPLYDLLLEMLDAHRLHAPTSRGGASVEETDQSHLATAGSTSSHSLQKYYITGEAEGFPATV
The series can be described thus: ERα high throughput imaging degradation assay in MCF7 cells. The format is cell-based. Particulars: for Dmax: MCF7; for DC50: MCF7 cells, 20 to 24 hours; for ERa degradation (% vs fulv): Figure 6e, individual replicates. Here is the method: Cells were fixed, permeabilised and stained with anti-ERα (rabbit clone SP1, Thermo) and anti-PR (mouse clone PgR 636, Dako) antibodies followed by secondary AlexaFluor 594 goat anti-rabbit and AlexaFluor 488 goat anti-mouse IgG antibodies. Imaging was using the Thermo Cellinsight scanner and average fluorescence intensity was analysed using Genedata.

Series [2] has as its target T2, ERα (Homo sapiens, UniProt P03372, D538G).
T2 construct: from tissue; host or cells: CTC174 PDX tumours grown in female NSG mice; for the ex vivo work, single cells disaggregated from these tumours
T2 sequence (P03372 1-595 D538G): T1 sequence (P03372 1-595) with D538G
The series can be described thus: CTC174 ex vivo studies, ERα by western blot. The format is cell-based. Particulars: for remaining activity at 1 µM: read-out: ERα levels, % of control; for ERα % of DMSO control: CTC174 ex vivo. Here is the method: CTC174 tumours were collected from donor mice, all fat, mouse tissue and necrotic areas removed and the resultant tumour placed in ice cold PBS and kept on ice. Using forceps, the tumour was then minced into small pieces (1-2 mm). Once minced, the tissue was colleced, placed into a gentlMACS C tube with 4.7 mL DMEM/F12 and enzymes H, R and A (Miltenyi Tumour Dissociation Kit), and run on the gentleMACS Octo Dissociator (Program 37C_h_TDK_2). After dissociation, the cell suspension was passed through a […] filter, red blood cell lysis performed using […] lysis buffer, and the resultant suspension centrifuged, resuspended in RPMI (containing 10% charcoal-stripped FCS) and 1x10^6 cell added to each well of a 6 well plate. DMSO control, AZ’3372 or AZ’6421 were added to well at a range of concentrations, left to incubate for 24 hours (37 °C, 5% CO2) and then samples prepared for western blot and ERα levels determined as described above.
For orientation: In western blotting, separated proteins are transferred to a membrane and probed.

Series [3] in a line: Plasma exposure of AZ’6421 and metabolite 8 in CTC174 PDX mice (free, cover over DC90). In kind it is in vivo, mouse. Here is the method: Mice were randomised into groups of 5 once tumour sizes reached approximately 0.3 to 0.4 cm^3. A vehicle control or AZ’6421 1, 3, 10, 30, and 100 mg/kg were dosed orally, once daily (QD) or twice daily (BID) in 5% v/v DMSO, 20% v/v Solutol HS15 in purified water formulation. AZD9833 was dosed once daily at 100 mg/kg in 40% TEG/60% (of 12.5%) SBE-β-CD formulation. Mice were dosed for 4 days and tumours were harvested 6 hours after the last dose. Tumour tissue was split into 3 and immediately snap-frozen in liquid nitrogen for subsequent analysis. Plasma samples were also taken at the end of the study by terminal cardiac bleed under isoflurane anaesthesia to measure pharmacokinetics and ensure the expected exposure was reached during the dosing period.
Each plasma sample ([…]) was prepared using an appropriate dilution factor, and compared against an 11-point standard calibration curve (1-10000 nM) prepared in DMSO and spiked into blank plasma. Acetonitrile ([…]) was added with the internal standard, followed by centrifugation at 3000 rpm for 10 minutes. The supernatant ([…]) was then diluted in […] acetonitrile:water (75:25) and analyzed via UPLC-MS/MS.
The MS/MS instrument used was either a Waters XEVO® TQ-S, Waters XEVO® TQ-D, or API 4000 (AB Sciex). The ultra-mass spectrometer used for sample analysis was completed in the MRM mode (MS/MS). Reverse-phase HPLC with a C18 column was used to separate the analytes. A mobile phase of 99% water/0.1% formic acid (solvent A) and a solvent phase of 99% acetonitrile/0.1% formic acid (solvent B) was used. A generic LC gradient elution was used at a flow rate of 0.5 mL/min with 95% solvent A and 5% solvent B for 0.3 min after which the concentration of solvent B was increased to 95% over 0.9 min before restoring it back to 5% for the remaining 0.5 min. Mass spectrometer methods were optimised for each compound.

For the molecule `C[C@@H]1Cc2c([nH]c3ccccc23)[C@@H](c2c(F)cc(OCCC(=O)O)cc2F)N1CC(C)(C)F` [Compound 8], the Dmax (commonly the greatest extent of degradation seen) at ERα [1] (0% vehicle control, 100% fulvestrant, read-out: ERα imaging Dmax) stood at 86 ± 4%. At ERα [1], the DC50 (usually the concentration giving 50% degradation) came out at 0.5 ± 0.1 nM. Moreover, the “ERa degradation (% vs fulv)” value at ERα [1] (log[compound] (M) -6.52) is 86.16% and 85.41% and 90.14% and 89.92% and 86.68% and 83.66% and 85.58% and 80.53%; on ERα [1] (log[compound] (M) -7.00), 65.22% and 84.95% and 90.84% and 90.97% and 84.15% and 85.62% and 84.72% and 83.12%; at ERα [1] (log[compound] (M) -7.51) it was 87.11% and 87.02% and 90.35% and 91.70% and 85.51% and 86.15% and 84.84% and 84.81%; at ERα [1] (log[compound] (M) -7.90), 81.45% and 85.48% and 90.59% and 86.35% and 80.42% and 79.30% and 79.15% and 77.88%; at ERα [1] (log[compound] (M) -8.52), 80.28% and 76.86% and 80.57% and 81.16% and 72.31% and 67.13% and 75.58% and 76.43%; at ERα [1] (log[compound] (M) -9.00), 64.37% and 61.04% and 63.02% and 63.61% and 52.14% and 45.07% and 64.32% and 69.99%. Further, the “ERa degradation (% vs fulv)” value on ERα [1] (log[compound] (M) -9.51) is 21.08% and 35.46% and 24.68% and 25.02% and 22.82% and 21.75% and 38.96% and 36.82%; at ERα [1] (log[compound] (M) -9.90), 20.56% and 6.22% and 6.66% and 18.09% and -5.08% and 24.12% and -6.47% and -3.82%; at ERα [1] (log[compound] (M) -10.51) it was -1.75% and -2.12% and 13.25% and 9.62% and 10.07% and 23.66% and -5.98% and -1.61%; at ERα [1] (log[compound] (M) -10.90), -0.94% and -3.29% and -5.11% and -4.81% and 28.56% and 0.42% and 1.50% and -12.94%; at ERα [1] (log[compound] (M) -11.51) it was 5.64% and 1.40% and -9.86% and -6.66% and -0.74% and -8.00% and -7.44% and -13.98%; on ERα [1] (log[compound] (M) -12.51), -13.89% and 2.41% and -4.59% and -2.38% and -17.18% and -3.64% and -7.40% and -8.33%. Moreover, at ERα [2] (1000 nM, CTC174 cells ex vivo (Fig. 6f)), the remaining activity at 1 µM turned out to be 42%. For the same molecule, the “free plasma concentration, fold above the compounds DC90” value in series [3] (AZ’6421 efficacy study) is on record as greater than 10 fold. The “free plasma concentration, fold higher than free AZ’6421” value in series [3] (steady state, AZ’6421 efficacy study) is on record as ~ 10 fold.

In the case of `Cc1ncsc1-c1ccc(CNC(=O)[C@@H]2C[C@@H](O)CN2C(=O)[C@@H](NC(=O)COCCCOCCCOc2cc(F)c([C@@H]3c4[nH]c5ccccc5c4C[C@@H](C)N3CC(C)(C)F)c(F)c2)C(C)(C)C)cc1` [Compound 5], the Degradation vs fulvestrant at ERα [1] (Log M -7.0, listed as AZ'6421) was 101.3% and 100.0% and 100.9% and 100.7% and 96.8% and 100.1% and 99.4% and 99.7%. Besides, on ERα [1] (MCF7, read-out: ERα imaging Dmax, 0% vehicle control, 100% fulvestrant), the Dmax amounted to 100 ± 1%. Also, it took 0.4 ± 0.1 nM to reach half-maximal degradation at ERα [1] (DC50). Moreover, the “ERa degradation (% vs fulv)” value at ERα [1] (log[compound] (M) -6.52, listed as AZ'6421) was 99.33% and 99.93% and 101.36% and 100.78% and 99.17% and 100.53% and 100.63% and 100.07% and 100.14% and 100.02%; at ERα [1] (log[compound] (M) -7.00, listed as AZ'6421), 101.32% and 100.02% and 100.91% and 100.71% and 100.90% and 96.75% and 100.07% and 99.39% and 100.12% and 99.67%; at ERα [1] (log[compound] (M) -7.51, listed as AZ'6421), 100.79% and 99.35% and 100.85% and 99.32% and 100.51% and 92.08% and 99.13% and 99.41% and 100.03% and 98.51%; on ERα [1] (log[compound] (M) -9.00, listed as AZ'6421), 93.78% and 65.44% and 89.78% and 70.27% and 72.25% and 75.33% and 76.06% and 75.57% and 73.41% and 66.07%; on ERα [1] (log[compound] (M) -9.51, listed as AZ'6421), 66.11% and 33.08% and 64.57% and 26.47% and 39.19% and 41.32% and 37.58% and 27.55% and 33.68% and 36.35%; on ERα [1] (log[compound] (M) -9.90, listed as AZ'6421) it was 38.07% and 5.08% and 43.62% and 16.97% and 24.51% and 17.96% and 13.58% and 13.52% and 2.56% and 2.84%. For the same molecule, the “ERa degradation (% vs fulv)” value at ERα [1] (log[compound] (M) -10.51, listed as AZ'6421) was 17.15% and -10.39% and 19.63% and 15.57% and 7.27% and 25.30% and 2.21% and -11.02% and -6.17% and -0.64%; at ERα [1] (log[compound] (M) -10.90, listed as AZ'6421), 22.79% and -6.31% and 31.83% and 8.09% and 2.16% and 2.02% and 3.46% and -2.88% and 3.42% and 4.13%; at ERα [1] (log[compound] (M) -11.51, listed as AZ'6421) it was 16.49% and -4.42% and 21.83% and -8.62% and -7.44% and -0.35% and 7.90% and 8.64% and 8.25% and -5.38%; at ERα [1] (log[compound] (M) -12.51, listed as AZ'6421) it was 22.96% and -5.76% and 24.26% and -2.82% and -3.01% and -3.46% and -11.46% and 15.61% and -2.65% and -10.83%. The “ERα % of DMSO control” value on ERα [2] (1 nM, 24 hours) is 20.3%; on ERα [2] (10 nM, 24 hours), 12.0%; at ERα [2] (30 nM, 24 hours), 4.1%; on ERα [2] (100 nM, 24 hours), 4.2%; on ERα [2] (300 nM, 24 hours), 3.9%; at ERα [2] (1000 nM, 24 hours) it was 3.6%. The ERα degradation entry on ERα [2] (CTC174 cells ex vivo, 24 hours, 10 nM and above) was “approximately 90%”. Also, the remaining activity at 1 µM on ERα [2] is less than 1%. Moreover, the “cover for target engagement by plasma drug concentration” value in series [3] (100 mg/kg dose) is recorded as “free plasma exposure > free DC90”. Moreover, the “fraction converted to 8 within 2 hours” value in series [3] (100 mg/kg, from Fig. 6d) is 7%.
